In article PMC5123632 (2016):

System: nasT'FRET (DNA, G4) GGGAGCGGGACGGGGGCCGGG
Test: FRET melting
Details: 100 mM Na+; 10 mM sodium cacodylate pH 7.4; 1 μM ligand (stated for ligand 1)

With C[n+]1ccc(-c2c3nc(c(-c4cc[n+](C)cc4)c4ccc([nH]4)c(-c4cc[n+](C)cc4)c4nc(c(-c5cc[n+](C)cc5)c5ccc2[nH]5)C=C4)C=C3)cc1 the ΔTm was 30 °C.
